Where “and” joins values, the source holds several entries; their conditions need not be identical. Equal entries are not always repeated. Calls of active or inactive are those of the source. How the calls were made is not given here.

The subject of this series is rodent lifetime carcinogenesis bioassay, tumor incidence TD50. Briefly: chronic cancer bioassays in animals – CPDB, compiled studies (AID 1745844).
[1] abbreviates: mouse, strain B6AKF1, females, oral dosing, site: any site (literature study), lesion: several types, types named in the paper, dosed 76 weeks, study length 76 weeks.
Setting [2] is: mouse, strain B6AKF1, females, oral dosing, site: liver, lesion: hepatoma, dosed 76 weeks, study length 76 weeks.
Where [3] appears, read: mouse, strain B6AKF1, females, oral dosing, site: lung, lesion: adenoma, dosed 76 weeks, study length 76 weeks.
Setting [4] is: mouse, strain B6AKF1, males, oral dosing, site: any site (literature study), lesion: several types, types named in the paper, dosed 76 weeks, study length 76 weeks.
[5] abbreviates: mouse, strain B6AKF1, males, oral dosing, site: liver, lesion: hepatoma, dosed 76 weeks, study length 76 weeks.
Where [6] appears, read: mouse, strain B6C3F1, females, oral dosing, site: liver, lesion: hepatoma, dosed 76 weeks, study length 76 weeks.
Setting [7] is: mouse, strain B6C3F1, females, oral dosing, site: lung, lesion: several types, types named in the paper, dosed 76 weeks, study length 76 weeks.
Where [8] appears, read: mouse, strain B6C3F1, males, oral dosing, site: any site (literature study), lesion: several types, types named in the paper, dosed 76 weeks, study length 76 weeks.
Setting [9] is: mouse, strain B6C3F1, males, oral dosing, site: liver, lesion: hepatoma, dosed 76 weeks, study length 76 weeks.
Setting [10] is: mouse, strain B6C3F1, males, oral dosing, site: lung, lesion: adenoma, dosed 76 weeks, study length 76 weeks.

One may read the TD50 as the 50% point of the dose-response relation for the toxic effect studied. On to `CC(=O)Nc1ccc(S(=O)(=O)O)c2cc(S(=O)(=O)O)c(N=Nc3ccc(N=Nc4ccc(S(=O)(=O)O)cc4)c4ccc(S(=O)(=O)O)cc34)c(O)c12`, for which the carcinogen call is “negative (inactive)” (mouse, strain CFW, females, in feed, site: liver, lesion: one or several types, types not named, dosed 80 weeks, study length 80 weeks); “negative (inactive)” (mouse, strain CFW, females, in feed, site: lung, lesion: adenoma, dosed 80 weeks, study length 80 weeks); “negative (inactive)” (mouse, strain CFW, males, in feed, site: liver, lesion: one or several types, types not named, dosed 80 weeks, study length 80 weeks); “negative (inactive)” (rat, strain CFE, females, in feed, site: liver, lesion: one or several types, types not named, dosed 104 weeks, study length 104 weeks); “negative (inactive)” (rat, strain CFE, males, in feed, site: liver, lesion: one or several types, types not named, dosed 104 weeks, study length 104 weeks). In addition, the TD50 (mouse, strain CFW, males, in feed, site: lung, lesion: adenoma, dosed 80 weeks, study length 80 weeks) is 3660 mg/kg/day (inactive).
As for `CN(C)CCN(Cc1ccsc1)c1ccccn1`, the carcinogen call is “negative (inactive)” (rat, strain Fischer 344, females, in drinking water, site: liver, lesion: several types, types named in the paper, dosed 80 weeks, study length 130 weeks) and “negative (inactive)” (rat, strain Fischer 344, males, in drinking water, site: thyroid follicle, lesion: several types, types named in the paper, dosed 80 weeks, study length 130 weeks). In addition, the TD50 by setting is: (rat, strain Fischer 344, females, in drinking water, site: thyroid follicle, lesion: several types, types named in the paper, dosed 80 weeks, study length 130 weeks) 10700 mg/kg/day (inactive); (rat, strain Fischer 344, males, in drinking water, site: liver, lesion: several types, types named in the paper, dosed 80 weeks, study length 130 weeks) 96.8 mg/kg/day (inactive).
Regarding `Cc1c(N)nc(C)c2c1[nH]c1ccccc12`, the TD50 reads like this: (mouse, strain CDF1, females, in feed, site: liver, lesion: hepatocellular carcinoma, dosed 88 weeks, study length 88 weeks) 29.6 mg/kg/day; (mouse, strain CDF1, females, in feed, site: liver, lesion: several types, types named in the paper, dosed 88 weeks, study length 88 weeks) 25 mg/kg/day; (mouse, strain CDF1, males, in feed, site: liver, lesion: hepatocellular carcinoma, dosed 88 weeks, study length 88 weeks) 112 mg/kg/day; (mouse, strain CDF1, males, in feed, site: liver, lesion: several types, types named in the paper, dosed 88 weeks, study length 88 weeks) 109 mg/kg/day; (rat, strain F344/DuCrj, females, in feed, site: liver, lesion: hepatocellular carcinoma, dosed 52 weeks, study length 52 weeks) 0.577 mg/kg/day; (rat, strain F344/DuCrj, males, in feed, site: liver, lesion: hepatocellular carcinoma, dosed 52 weeks, study length 52 weeks) 0.574 mg/kg/day.
`OC[C@@H](O)[C@H]1O[C@@H]2O[C@H](C(Cl)(Cl)Cl)O[C@@H]2[C@H]1O`: the TD50 is 17.3 mg/kg/day (inactive) under setting [1]; 19.5 mg/kg/day (inactive) under setting [3]; 4.07 mg/kg/day (inactive) under setting [8]; 7.27 mg/kg/day (inactive) under setting [9]; 11.2 mg/kg/day (inactive) under setting [10]. In addition, the carcinogen call runs as follows: under setting [2], “negative (inactive)”; under setting [4], “negative (inactive)”; under setting [5], “negative (inactive)”; (mouse, strain B6AKF1, males, oral dosing, site: lung, lesion: adenoma, dosed 76 weeks, study length 76 weeks) “negative (inactive)”; (mouse, strain B6C3F1, females, oral dosing, site: any site (literature study), lesion: one or several types, types not named, dosed 76 weeks, study length 76 weeks) “negative (inactive)”; under setting [6], “negative (inactive)”. Also, the carcinogen call under setting [7] is “negative (inactive)”.
With `Nc1ccc2oc3ccccc3c2c1`, the carcinogen call (mouse, strain (C57 x IF)F1, females, in feed, site: liver, lesion: several types, types named in the paper, dosed 52 weeks, study length 58 weeks) is “positive”. For the same molecule, the TD50 was 8.67 mg/kg/day (mouse, strain (C57 x IF)F1, males, in feed, site: liver, lesion: malignant hepatoma, dosed 52 weeks, study length 67 weeks); 5.73 mg/kg/day (mouse, strain (C57 x IF)F1, males, in feed, site: liver, lesion: several types, types named in the paper, dosed 52 weeks, study length 67 weeks); 22.3 mg/kg/day (mouse, strain (C57 x IF)F1, males, in feed, site: urinary bladder, lesion: carcinoma, dosed 52 weeks, study length 67 weeks).
For `C/C(=C(\CCOC(=O)c1ccccc1)SC(=O)c1ccccc1)N(C=O)Cc1cnc(C)nc1N`, the TD50 runs as follows: (rat, strain Sprague-Dawley, females, in feed, site: any site (literature study), lesion: malignant tumor, dosed 105 weeks, study length 105 weeks) 14300 mg/kg/day (inactive); (rat, strain Sprague-Dawley, males, in feed, site: any site (literature study), lesion: malignant tumor, dosed 105 weeks, study length 105 weeks) 2340 mg/kg/day (inactive); (rat, strain Sprague-Dawley, males, in feed, site: liver, lesion: liver-cell tumor, benign, dosed 105 weeks, study length 105 weeks) 6980 mg/kg/day (inactive); (rat, strain Sprague-Dawley, males, in feed, site: liver, lesion: liver-cell tumor, malignant, dosed 105 weeks, study length 105 weeks) 6770 mg/kg/day (inactive). Besides, the carcinogen call is “negative (inactive)” (rat, strain Sprague-Dawley, females, in feed, site: any site (literature study), lesion: several types, types named in the paper, dosed 105 weeks, study length 105 weeks); “negative (inactive)” (rat, strain Sprague-Dawley, females, in feed, site: liver, lesion: hemangiosarcoma anaplastic, dosed 105 weeks, study length 105 weeks); “negative (inactive)” (rat, strain Sprague-Dawley, males, in feed, site: any site (literature study), lesion: several types, types named in the paper, dosed 105 weeks, study length 105 weeks).
As for `CCCCCCCCCCCCN=C(N)N`, the carcinogen call under setting [1] was “negative (inactive)”; the carcinogen call under setting [2] was “negative (inactive)”; the carcinogen call under setting [3] was “negative (inactive)”; the carcinogen call under setting [5] is “negative (inactive)”; the carcinogen call under setting [7] is “negative (inactive)”. Moreover, the TD50 under setting [4] is 149 mg/kg/day (inactive); the TD50 (mouse, strain B6AKF1, males, oral dosing, site: lung, lesion: several types, types named in the paper, dosed 76 weeks, study length 76 weeks) is 41.9 mg/kg/day (inactive); the TD50 (mouse, strain B6C3F1, females, oral dosing, site: any site (literature study), lesion: several types, types named in the paper, dosed 76 weeks, study length 76 weeks) was 54.7 mg/kg/day (inactive); the TD50 under setting [6] is 54.7 mg/kg/day (inactive); the TD50 under setting [8] is 10.8 mg/kg/day (inactive); the TD50 under setting [9] was 19.4 mg/kg/day (inactive). Further, the TD50 under setting [10] was 30.1 mg/kg/day (inactive).
Turning to `Nc1ccc(Oc2ccc(Cl)cc2)cc1`, the TD50 (mouse, strain CD-1 HaM/ICR, females, in feed, site: all sites, lesion: all vascular tumors, dosed 68 weeks, study length 86 weeks) was 346 mg/kg/day; the TD50 (mouse, strain CD-1 HaM/ICR, females, in feed, site: any site (literature study), lesion: several types, types named in the paper, dosed 68 weeks, study length 86 weeks) stood at 598 mg/kg/day; the TD50 (mouse, strain CD-1 HaM/ICR, females, in feed, site: liver, lesion: several types, types named in the paper, dosed 68 weeks, study length 86 weeks) worked out at 905 mg/kg/day; the TD50 (mouse, strain CD-1 HaM/ICR, females, in feed, site: urinary bladder, lesion: several types, types named in the paper, dosed 68 weeks, study length 86 weeks) is 1130 mg/kg/day; the TD50 (rat, strain Charles River CD (Sprague-Dawley), males, in feed, site: any site (literature study), lesion: several types, types named in the paper, dosed 77 weeks, study length 98 weeks) was found to be 25.1 mg/kg/day; the TD50 (rat, strain Charles River CD (Sprague-Dawley), males, in feed, site: liver, lesion: hepatoma, dosed 77 weeks, study length 98 weeks) was 37.9 mg/kg/day and 37.6 mg/kg/day. Moreover, where the note is “rat, strain Charles River CD (Sprague-Dawley), males, in feed, site: liver, lesion: several types, types named in the paper, dosed 77 weeks, study length 98 weeks”, the TD50 was 37.9 mg/kg/day. In addition, the carcinogen call is “negative (inactive)” (mouse, strain CD-1 HaM/ICR, males, in feed, site: any site (literature study), lesion: several types, types named in the paper, dosed 51 weeks, study length 55 weeks); “negative (inactive)” (mouse, strain CD-1 HaM/ICR, males, in feed, site: liver, lesion: several types, types named in the paper, dosed 51 weeks, study length 55 weeks); “negative (inactive)” (mouse, strain CD-1 HaM/ICR, males, in feed, site: lung, lesion: several types, types named in the paper, dosed 51 weeks, study length 55 weeks).
For the molecule `CNC(=O)ON=C(SC)C(=O)N(C)C`, the carcinogen call reads like this: (mouse, strain Charles River CD1, females, in feed, site: any site (literature study), lesion: several types, types named in the paper, dosed 104 weeks, study length 104 weeks) “negative (inactive)”; (mouse, strain Charles River CD1, males, in feed, site: any site (literature study), lesion: several types, types named in the paper, dosed 104 weeks, study length 104 weeks) “negative (inactive)”; (rat, strain Charles River CD (Sprague-Dawley), females, in feed, site: liver, lesion: hepatocellular hyperplastic nodule, dosed 104 weeks, study length 104 weeks) “negative (inactive)”; (rat, strain Charles River CD (Sprague-Dawley), males, in feed, site: liver, lesion: one or several types, types not named, dosed 104 weeks, study length 104 weeks) “negative (inactive)”.

These data come from PubChem BioAssay AID1745844 (Carcinogenic Potency Database (CPDB), 2022).
